US4670461A, “Formaldehyde derivatives of mitindomide” (priority 1984, dated 1987)
Converted amounts (≈) assume the structure as drawn.

Legend:
Water solubility = assay type: physicochemical; conditions: for solubility: read-out: H2O Sol. % (g per 100 ml H2O)
L1210 leukemia [1] = assay: S.C. implanted L1210 leukemia in mice (CD2F1); assay type: in vivo
Description: ^a Experimental formulation of mitindomide was used (NaOH + manitol).

L1210 leukemia [2] = assay: IP implanted L1210 leukemia in mice (CD2F1); assay type: in vivo
P388 = assay: IP P388, Days 1-9 (NCI murine test system); assay type: in vivo; conditions: IP P388, Days 1-9, dose 400
Method: Anti-tumor or anti-neoplastic activity of the novel derivatives of the present invention is determined by using the murine test system for screening anti-cancer compounds as standardized by the National Cancer Institute, Bethesda, Md., U.S.A., and described in Cancer Chemotherapy Reports, 3 (2) 1-103 (1972) which publication is incorporated herein by reference.
It is noted that although the intraperitoneal mode of administration of the novel derivatives is preferred, other modes of parenteral administration, e.g. subcutaneous, intravenous, etc., are, of course, possible and included within the purview of this invention. Similarly, although water has been used as a vehicle for the administration of the compounds of the present invention, other pharmaceutically acceptable vehicles, e.g. saline, buffers, and other aqueous media may also be used for the administration of these compounds together with adjuvants, agents or additives commonly employed in the preparation of pharmaceutical compositions. Examples of such agents, additives and adjuvants that may be employed are listed in Instruction 14, Screening Data Summary Interpretation and Outline of Clinical Screen. Drug Evaluation Branch, NCI. and are incorporated herein by reference.

[3] = 21.6 mg/kg ip days 1-9, Expt. 1
[4] = 21.6 mg/kg ip days 1-9, Expt. 2
[5] = 36.0 mg/kg ip days 1-9, Expt. 1
[6] = 36.0 mg/kg ip days 1-9, Expt. 2
[7] = 60.0 mg/kg ip days 1-9, Expt. 1
[8] = 60.0 mg/kg ip days 1-9, Expt. 2
[9] = 100.0 mg/kg ip days 1-9, Expt. 1
[10] = 100.0 mg/kg ip days 1-9, Expt. 2
[11] = 166.7 mg/kg ip days 1-9, Expt. 2
[12] = 21.6 mg/kg IP days 1-9, Expt. 1
[13] = 21.6 mg/kg IP days 1-9, Expt. 2
[14] = 21.6 mg/kg IP days 1-9, Expt. 3
[15] = 166.7 mg/kg IP days 1-9, Expt. 1
[16] = 166.7 mg/kg IP days 1-9, Expt. 3

Compound: O=C1C2C3C=CC(C2C(=O)N1CO)C1C2C(=O)N(CO)C(=O)C2C31 (centres unmarked) [Example 2, 4,8-Ethenopyrrolo[3',4':3,4]cyclobut[1,2-f]isoindole-1,3,5,7(2H,6H)-tetrone,3a,3b,4,4a,7a,8,8a,8b-octahydro-2-,6-bis(hydroxymethyl)-]
- solubility (Water solubility; water): 8000 µg/mL (≈ 24.1 mM)

Compound: CN1CCN(CN2C(=O)C3C4C=CC(C3C2=O)C2C3C(=O)N(CN5CCN(C)CC5)C(=O)C3C42)CC1 (centres unmarked) [Example 3, 4,8-Ethenopyrrolo[3'4':3,4]cyclobut[1,2-f]isoindole-1,3,5,7(2H,6H)-tetrone,3a,3b,4,4a,7a,8,8a,8b-octahydro-2,6-bis(N-methylpiperazinomethyl)]
- ILS (L1210 leukemia [1]; [3]): 6%
- MST (L1210 leukemia [1]; [3]): 8.7 days
- Wt. Change (L1210 leukemia [1]; [3]): -0.3 g
- ILS (L1210 leukemia [1]; [4]): 10%
- MST (L1210 leukemia [1]; [4]): 11.8 days
- Wt. Change (L1210 leukemia [1]; [4]): 0.2 g
- ILS (L1210 leukemia [1]; [5]): 13%
- MST (L1210 leukemia [1]; [5]): 9.3 days
- Wt. Change (L1210 leukemia [1]; [5]): -1.0 g
- ILS (L1210 leukemia [1]; [6]): 5%
- MST (L1210 leukemia [1]; [6]): 11.3 days
- Wt. Change (L1210 leukemia [1]; [6]): -0.4 g
- ILS (L1210 leukemia [1]; [7]): 70%
- MST (L1210 leukemia [1]; [7]): 14.0 days
- Wt. Change (L1210 leukemia [1]; [7]): -4.2 g
- ILS (L1210 leukemia [1]; [8]): 14%
- MST (L1210 leukemia [1]; [8]): 12.3 days
- Wt. Change (L1210 leukemia [1]; [8]): -0.7 g
- ILS (L1210 leukemia [1]; [9]): 143%
- MST (L1210 leukemia [1]; [9]): 20.0 days
- Wt. Change (L1210 leukemia [1]; [9]): -5.3 g
- ILS (L1210 leukemia [1]; [10]): 72%
- MST (L1210 leukemia [1]; [10]): 18.5 days
- Wt. Change (L1210 leukemia [1]; [10]): -3.1 g
- ILS (L1210 leukemia [1]; [11]): 133%
- MST (L1210 leukemia [1]; [11]): 25.0 days
- Wt. Change (L1210 leukemia [1]; [11]): -4.9 g
- ILS (L1210 leukemia [2]; [12]): 4%
- MST (L1210 leukemia [2]; [12]): 9.1 days
- Wt. Change (L1210 leukemia [2]; [12]): 1.9 g
- ILS (L1210 leukemia [2]; [13]): 3%
- MST (L1210 leukemia [2]; [13]): 8.3 days
- Wt. Change (L1210 leukemia [2]; [13]): 0.7 g
- ILS (L1210 leukemia [2]; [14]): 9%
- MST (L1210 leukemia [2]; [14]): 9.0 days
- Wt. Change (L1210 leukemia [2]; [14]): 0.2 g
- ILS (L1210 leukemia [2]; 36 mg/kg IP days 1-9, Expt. 1): 5%
- MST (L1210 leukemia [2]; 36 mg/kg IP days 1-9, Expt. 1): 9.2 days
- Wt. Change (L1210 leukemia [2]; 36 mg/kg IP days 1-9, Expt. 1): 1.7 g
- ILS (L1210 leukemia [2]; 36 mg/kg IP days 1-9, Expt. 2): 12%
- MST (L1210 leukemia [2]; 36 mg/kg IP days 1-9, Expt. 2): 9.0 days
- Wt. Change (L1210 leukemia [2]; 36 mg/kg IP days 1-9, Expt. 2): -0.5 g
- ILS (L1210 leukemia [2]; 36 mg/kg IP days 1-9, Expt. 3): 9%
- MST (L1210 leukemia [2]; 36 mg/kg IP days 1-9, Expt. 3): 9.0 days
- Wt. Change (L1210 leukemia [2]; 36 mg/kg IP days 1-9, Expt. 3): 0.2 g
- ILS (L1210 leukemia [2]; 60 mg/kg IP days 1-9, Expt. 1): 37%
- MST (L1210 leukemia [2]; 60 mg/kg IP days 1-9, Expt. 1): 12.0 days
- Wt. Change (L1210 leukemia [2]; 60 mg/kg IP days 1-9, Expt. 1): -0.4 g
- ILS (L1210 leukemia [2]; 60 mg/kg IP days 1-9, Expt. 2): 75%
- MST (L1210 leukemia [2]; 60 mg/kg IP days 1-9, Expt. 2): 14.0 days
- Wt. Change (L1210 leukemia [2]; 60 mg/kg IP days 1-9, Expt. 2): -4.4 g
- ILS (L1210 leukemia [2]; 60 mg/kg IP days 1-9, Expt. 3): 46%
- MST (L1210 leukemia [2]; 60 mg/kg IP days 1-9, Expt. 3): 12.0 days
- Wt. Change (L1210 leukemia [2]; 60 mg/kg IP days 1-9, Expt. 3): -1.3 g
- ILS (L1210 leukemia [2]; 100 mg/kg IP days 1-9, Expt. 1): 37%
- MST (L1210 leukemia [2]; 100 mg/kg IP days 1-9, Expt. 1): 12.0 days
- Wt. Change (L1210 leukemia [2]; 100 mg/kg IP days 1-9, Expt. 1): -2.9 g
- ILS (L1210 leukemia [2]; 100 mg/kg IP days 1-9, Expt. 2): 141%
- MST (L1210 leukemia [2]; 100 mg/kg IP days 1-9, Expt. 2): 19.3 days
- Wt. Change (L1210 leukemia [2]; 100 mg/kg IP days 1-9, Expt. 2): -4.8 g
- ILS (L1210 leukemia [2]; 100 mg/kg IP days 1-9, Expt. 3): 95%
- MST (L1210 leukemia [2]; 100 mg/kg IP days 1-9, Expt. 3): 16.0 days
- Wt. Change (L1210 leukemia [2]; 100 mg/kg IP days 1-9, Expt. 3): -3.1 g
- MST (L1210 leukemia [2]; [15]): 6.3 days
- Wt. Change (L1210 leukemia [2]; [15]): -5.2 g
- ILS (L1210 leukemia [2]; [16]): 156%
- MST (L1210 leukemia [2]; [16]): 21.0 days
- Wt. Change (L1210 leukemia [2]; [16]): -5.2 g
- solubility of dosed preparation (L1210 leukemia [2]; Table 4 Expt. 1, vehicle water, 60 mg/kg and higher): insoluble
- H2O Sol. % (g per 100 ml H2O) (Water solubility; water): 1.5 % (g per 100 ml H2O)

Compound: O=C1C2C3C=CC(C2C(=O)N1CN1CCOCC1)C1C2C(=O)N(CN4CCOCC4)C(=O)C2C31 (centres unmarked) [Example 5, 4,8-Ethenopyrro[3',4':3,4]cyclobut[1,2-f]isoindole-1,3,5,7(2H,6H)-tetrone,3a,3b,4,4a,7a,8,8a,8b-octahydro-2,6-bis(morpholinomethyl)]
- solubility (Water solubility; water): 1000 µg/mL (≈ 2.13 mM)

Compound: O=C1C2C3C=CC(C2C(=O)N1CN1CCSCC1)C1C2C(=O)N(CN4CCSCC4)C(=O)C2C31 (centres unmarked) [Example 6, 4,8-Ethenopyrrolo[3'4':3,4]cyclobut[1,2-f]isoindole-1,3,5,7(2H,6H)-tetrone,3a,3b,4,4a,7a,8,8a,8-octahydro-2,6-bis(thiomorpholinomethyl)]
- solubility (Water solubility; water): 1000 µg/mL (≈ 1.99 mM)

Compound: CCN(CC)CN1C(=O)C2C3C=CC(C2C1=O)C1C2C(=O)N(CN(CC)CC)C(=O)C2C31 (centres unmarked) [Example 7, 4,8-Ethenopyrrolo[3',4':3,4]cyclobut[1,2-f]isoindole-1,3,5,7(2H,6H)-tetrone,3a,3b,4,4a,7a,8,8a,8b-octahydro-2,6-bis(N,N-diethylaminomethyl)]
- solubility (Water solubility; water): 1000 µg/mL (≈ 2.26 mM)

Compound: CC(=O)OCN1C(=O)C2C3C=CC(C2C1=O)C1C2C(=O)N(COC(C)=O)C(=O)C2C31 (centres unmarked) [Example 8, 4,8-Ethenopyrrolo3',4':3,4cyclobut[1,2-f]isoindole-1,3,5,7(2H,6H)-tetrone,3a,3b,4,4a,7a,8a,8b-octahydro-2,6-bis(acetyloxymethyl)]
- T/C (P388): 208
- fraction printed in brackets behind T/C (not explained) (P388): 1/5
- solubility (Water solubility; water): 1000 µg/mL (≈ 2.4 mM)

Compound: NCC(=O)OCN1C(=O)C2C3C=CC(C2C1=O)C1C2C(=O)N(COC(=O)CN)C(=O)C2C31 (centres unmarked) [Example 9, 4,8-Ethenopyrrolo[3',4':3,4]cyclobut[1,2-f]isoindole-1,3,5,7(2H,6H)-tetrone,3a,3b,4,4a,7a,8,8a,8b-octahydro-2-,6bis(2-aminoacetyloxymethyl)]
- solubility (Water solubility; water): 20000 µg/mL (≈ 44.8 mM)

Compound: O=C(O)CCC(=O)OCN1C(=O)C2C3C=CC(C2C1=O)C1C2C(=O)N(COC(=O)CCC(=O)O)C(=O)C2C31 (centres unmarked) [Example 10, 4,8-Ethenopyrrolo[3',4':3,4]cyclobut[1,2-f]isoindole-1,3,5,7(2H,6H)-tetrone,3a,3b,4,4a,7a,8,8a,8b-octahydro-2-,6-bis(succinyloxymethyl)]
- solubility in water (Water solubility; freeze-dried powder after pH adjusted to 6.33 with sodium bicarbonate): readily soluble in water
- solubility in water (Water solubility; title compound, 2.4 g mixed with 150 ml of water): not soluble
- solubility (Water solubility; water): 20000 µg/mL (≈ 37.6 mM)

Compound: CC(=O)OC(C(=O)O)N1C(=O)C2C3C=CC(C2C1=O)C1C2C(=O)N(C(OC(C)=O)C(=O)O)C(=O)C2C31 (centres unmarked) [Example 11]
- solubility in water (Water solubility; freeze-dried solid after pH adjusted to 6.11 with sodium bicarbonate): soluble in water
- solubility (Water solubility; water): 50000 µg/mL (≈ 99.1 mM)
